Laboratory results taken from ChEMBL document CHEMBL1137763, “Cyclobutane-containing peptides: evaluation as novel metallocarboxypeptidase inhibitors and modelling of their mode of action” (Bioorg Med Chem, 2009).
Values belong to the compound of their own block, whether it stands above or below them.

Tests used:
Carboxypeptidase A1 = biological target: T1, Carboxypeptidase A1 (Bos taurus, UniProt P00730); experiment: Inhibition of bovine pancreatic carboxypeptidase A by microtiter plate method
T1 sequence (P00730 whole entry): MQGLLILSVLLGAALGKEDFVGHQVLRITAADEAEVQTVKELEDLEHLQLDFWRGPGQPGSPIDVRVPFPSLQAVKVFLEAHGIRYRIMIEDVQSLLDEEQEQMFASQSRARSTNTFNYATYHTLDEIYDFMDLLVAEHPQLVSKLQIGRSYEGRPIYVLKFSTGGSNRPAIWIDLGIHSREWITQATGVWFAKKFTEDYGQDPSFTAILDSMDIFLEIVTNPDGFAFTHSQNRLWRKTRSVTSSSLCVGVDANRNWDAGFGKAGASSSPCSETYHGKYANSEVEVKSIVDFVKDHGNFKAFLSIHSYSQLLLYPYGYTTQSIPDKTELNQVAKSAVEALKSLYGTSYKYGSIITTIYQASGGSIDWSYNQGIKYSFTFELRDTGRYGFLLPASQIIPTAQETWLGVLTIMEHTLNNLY

Carboxypeptidase B = biological target: T2, Carboxypeptidase B (Homo sapiens, UniProt P15086); experiment: Inhibition of human recombinant carboxypeptidase B expressed in Saccharomyces cerevisiae by microtiter plate method
T2 sequence (P15086 whole entry): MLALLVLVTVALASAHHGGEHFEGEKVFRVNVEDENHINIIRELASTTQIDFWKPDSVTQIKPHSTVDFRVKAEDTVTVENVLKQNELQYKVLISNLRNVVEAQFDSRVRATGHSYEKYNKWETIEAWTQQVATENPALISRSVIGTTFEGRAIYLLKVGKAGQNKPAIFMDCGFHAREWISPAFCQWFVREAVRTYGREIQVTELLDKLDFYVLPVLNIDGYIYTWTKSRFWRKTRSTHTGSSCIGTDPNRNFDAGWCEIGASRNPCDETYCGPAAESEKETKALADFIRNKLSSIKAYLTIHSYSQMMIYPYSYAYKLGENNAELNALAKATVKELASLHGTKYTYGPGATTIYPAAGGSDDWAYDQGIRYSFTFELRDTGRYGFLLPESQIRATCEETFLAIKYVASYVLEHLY

SMILES: COC(=O)CNC(=O)[C@@H]1CC[C@@H]1NC(=O)OCc1ccccc1
Ki (Carboxypeptidase A1): 550 µM
Ki (Carboxypeptidase B): 500 µM

SMILES: COC(=O)[C@@H]1CC[C@@H]1NC(=O)[C@@H]1CC[C@@H]1NC(=O)OCc1ccccc1
Ki (Carboxypeptidase A1): 95 µM
Ki (Carboxypeptidase B): 275 µM

SMILES: COC(=O)CCNC(=O)[C@@H]1CC[C@@H]1NC(=O)OCc1ccccc1
Ki (Carboxypeptidase A1): 180 µM
Ki (Carboxypeptidase B): 400 µM

SMILES: COC(=O)CCCCNC(=O)[C@H]1CC[C@H]1NC(=O)OCc1ccccc1
Ki (Carboxypeptidase A1): 72.5 µM
Ki (Carboxypeptidase B): 410 µM

The next compounds have a lower Ki (Carboxypeptidase A1) than those just listed; values first:

Ki (Carboxypeptidase A1): 67 µM
Ki (Carboxypeptidase B): 70 µM
SMILES: COC(=O)[C@H]1CC[C@H]1NC(=O)[C@H]1CC[C@H]1NC(=O)OCc1ccccc1

Ki (Carboxypeptidase A1): 70 µM
Ki (Carboxypeptidase B): 43 µM
SMILES: O=C(O)CCNC(=O)[C@@H]1CC[C@@H]1NC(=O)OCc1ccccc1
